Where two headings read alike, the source gives them in different places.
Molecular target: T1, PfUCHL3 (Plasmodium falciparum, UniProt Q8IKM8)
T1 construct: gene UCHL3
Assay: fluorimetric Ub-AMC deubiquitinase assay with recombinant purified PfUCHL3, dose-response
Format: biochemical

T1 sequence (Q8IKM8 whole entry): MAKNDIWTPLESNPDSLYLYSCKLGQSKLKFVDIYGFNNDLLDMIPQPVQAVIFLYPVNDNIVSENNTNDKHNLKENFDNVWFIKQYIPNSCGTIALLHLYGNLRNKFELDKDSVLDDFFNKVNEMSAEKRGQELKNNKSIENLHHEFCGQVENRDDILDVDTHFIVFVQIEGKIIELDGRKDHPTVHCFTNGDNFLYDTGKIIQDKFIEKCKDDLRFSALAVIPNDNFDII

SMILES | IC50 [µM] | IC50 (read-out: IC50) [µM]
CC1COC2(CCN(c3nc(=O)c4cc(C(F)(F)F)cc([N+](=O)[O-])c4s3)CC2)O1 (centres unmarked) [compound 1, MMV676603] | 25.1 ± 1.8 | –
Cc1cc2nc(NC(=O)C(C)(C)C)nc(Cl)c2n1Cc1ccc(Cl)cc1 [compound 2, MMV688704] | – | 87.1 ± 1.75

— paper PMC8766476, “Repurposing the Pathogen Box compounds for identification of potent anti-malarials against blood stages of Plasmodium falciparum with PfUCHL3 inhibitory activity” (Scientific Reports, 2022)
